Patent US11951094B2, “TLR2 modulator compounds, pharmaceutical compositions and uses thereof” (Axial Therapeutics, Inc., priority 2020, dated 2024)

These compounds were tested against TLR2 (Homo sapiens, UniProt O60603) (assay: TLR2 agonist screening assay, HEK-Blue TLR2 reporter cell line (NF-kB-driven SEAP, absorbance at 600 nm)). Conditions: HEK-Blue TLR2 reporter cells, agonist mode; average of all runs (Table 3).
Chain of TLR2 (O60603 21-784): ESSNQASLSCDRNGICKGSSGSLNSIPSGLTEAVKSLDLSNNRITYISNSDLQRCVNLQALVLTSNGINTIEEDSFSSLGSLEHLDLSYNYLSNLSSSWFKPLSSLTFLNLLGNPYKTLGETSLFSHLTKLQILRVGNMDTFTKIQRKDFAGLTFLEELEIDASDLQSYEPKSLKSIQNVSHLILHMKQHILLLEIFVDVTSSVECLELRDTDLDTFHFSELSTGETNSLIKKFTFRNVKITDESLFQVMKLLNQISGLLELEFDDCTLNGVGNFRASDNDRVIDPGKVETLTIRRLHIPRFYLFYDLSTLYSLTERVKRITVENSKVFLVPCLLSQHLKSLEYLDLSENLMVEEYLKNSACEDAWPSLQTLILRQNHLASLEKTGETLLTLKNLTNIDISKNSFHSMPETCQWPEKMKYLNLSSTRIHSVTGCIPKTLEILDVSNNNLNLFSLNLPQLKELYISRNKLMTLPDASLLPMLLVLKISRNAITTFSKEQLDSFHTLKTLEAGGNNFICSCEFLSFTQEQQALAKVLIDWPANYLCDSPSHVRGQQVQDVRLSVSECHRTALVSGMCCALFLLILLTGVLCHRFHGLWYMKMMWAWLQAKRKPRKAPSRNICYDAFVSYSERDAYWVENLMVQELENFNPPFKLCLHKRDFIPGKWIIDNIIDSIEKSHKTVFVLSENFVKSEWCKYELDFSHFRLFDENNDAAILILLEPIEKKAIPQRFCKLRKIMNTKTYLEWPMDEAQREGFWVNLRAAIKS
Assay type: cell-based
Set-up: host or cells: HEK-293 (HEK-Blue TLR2 reporter cell line)
Outline: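 TLR2 engagement is scored through NF-kB-induced secreted alkaline phosphatase in HEK-293 cells, detected by substrate colour change at 600 nm after overnight compound treatment at 1% final DMSO. Potency is expressed as EC50.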
In the case of `O=C(N[C@H]1C[C@@H]1c1ccccc1)[C@@H]1CN(C(=O)c2cccc(C(=O)N3C[C@@H](C(=O)N[C@H]4C[C@@H]4c4ccccc4)[C@H](C(=O)N[C@H]4C[C@@H]4c4ccccc4)C3)c2)C[C@H]1C(=O)N[C@H]1C[C@@H]1c1ccccc1` (racemic) [Compound 001], the EC50 is reported as over 1 µM. `CCCCCCCCC(=O)N1CCN(C(=O)c2ccc(C(=O)N3C[C@@H](C(=O)N[C@H]4C[C@@H]4c4ccccc4)[C@H](C(=O)N[C@H]4C[C@@H]4c4ccccc4)C3)cc2)CC1C(=O)NCCCCCC` (stereo partly drawn) [Compound 051, (3S,4S)-1-(4-(3-(hexylcarbamoyl)-4-nonanoylpiperazine-1-carbonyl)benzoyl)-N3,N4-bis((1S,2R)-2-phenylcyclopropyl)pyrrolidine-3,4-dicarboxamide] showed an EC50 of 0.0001 to 0.05 µM.

Same assay, conditions: HEK-Blue TLR2 reporter cells, agonist mode; average of all runs (Table 4)
In the case of `CCCCCCCCCCCCCCNC(=O)[C@@H]1CN(C(=O)c2ccc(C(=O)N3C[C@@H](C(=O)N[C@H]4C[C@@H]4c4ccccc4)[C@H](C(=O)N[C@H]4C[C@@H]4c4ccccc4)C3)cc2)CCN1C(=O)CC(C)(C)C` [Compound 253, (3S,4S)-1-(4-((S)-4-(3,3-dimethylbutanoyl)-3-(tetradecylcarbamoyl)piperazine-1-carbonyl)benzoyl)-N3,N4-bis((1S,2R)-2-phenylcyclopropyl)pyrrolidine-3,4-dicarboxamide], the EC50 is reported as over 1 µM. With `CCCCCCCCCC(=O)N[C@@H](CNc1nc2cc(C(=O)N3C[C@@H](C(=O)N[C@H]4C[C@@H]4c4ccccc4)[C@H](C(=O)N[C@H]4C[C@@H]4c4ccccc4)C3)ccc2o1)C(=O)NCCCCCC` [Compound 246, (3S,4S)-1-(2-(((S)-2-decanamido-3-(hexylamino)-3-oxopropyl)amino)benzo[d]oxazole-5-carbonyl)-N3,N4-bis((1S,2R)-2-phenylcyclopropyl)pyrrolidine-3,4-dicarboxamide] the EC50 was over 1 µM. `CCCCCCCO[C@@H]1CN(C(=O)c2ccc(C(=O)N3C[C@@H](C(=O)N[C@H]4C[C@@H]4c4ccccc4)[C@H](C(=O)N[C@H]4C[C@@H]4c4ccccc4)C3)cc2)C[C@H]1NC(=O)CCCCCC` [Compound 155, (3S,4S)-1-(4-((3R,4R)-3-heptanamido-4-(heptyloxy)pyrrolidine-1-carbonyl)benzoyl)-N3,N4-bis((1S,2R)-2-phenylcyclopropyl)pyrrolidine-3,4-dicarboxamide] was tested, and the EC50 was over 1 µM. With `CCCCCCCCCC(=O)N[C@@H](COCc1ccc(C(=O)N2C[C@@H](C(=O)N[C@H]3C[C@@H]3c3ccccc3)[C@H](C(=O)N[C@H]3C[C@@H]3c3ccccc3)C2)cc1)C(=O)NCCCCCC` [Compound 263, (3S,4S)-1-(4-(((S)-2-decanamido-3-(hexylamino)-3-oxopropoxy)methyl)benzoyl)-N3,N4-bis((1S,2R)-2-phenylcyclopropyl) pyrrolidine-3,4-dicarboxamide] the EC50 was 0.351 to 1 µM. Compound `O=C(N[C@H]1C[C@@H]1c1ccccc1)[C@@H]1CN(C(=O)C23CCC(C(=O)N4C[C@@H](C(=O)N[C@H]5C[C@@H]5c5ccccc5)[C@H](C(=O)N[C@H]5C[C@@H]5c5ccccc5)C4)(CC2)C3)C[C@H]1C(=O)N[C@H]1C[C@@H]1c1ccccc1` [Compound 081, (3S,3'S,4S,4'S)-1,1′-(bicyclo [2.2.1]heptane-1,4-dicarbonyl) bis (N3,N4-bis((1S,2R)-2-phenylcyclopropyl)pyrrolidine-3,4-dicarboxamide)] has an EC50 of 0.351 to 1 µM. `CCCCCCCCCCCCCCC(=O)N[C@H]1CN(C(=O)c2ccc(C(=O)N3C[C@@H](C(=O)N[C@H]4C[C@@H]4c4ccccc4)[C@H](C(=O)N[C@H]4C[C@@H]4c4ccccc4)C3)cc2)C[C@H]1OC` [Compound 236, (3S,4S)-1-(4-((3R,4S)-3-methoxy-4-pentadecanamidopyrrolidine-1-carbonyl)benzoyl)-N3,N4-bis ((1S,2R)-2-phenylcyclopropyl) pyrrolidine-3,4-dicarboxamide] gave an EC50 of 0.0001 to 0.05 µM. For `CCCCCCCC(=O)N1CCCN(C(=O)c2ccc(C(=O)N3C[C@@H](C(=O)N[C@H]4C[C@@H]4c4ccccc4)[C@H](C(=O)N[C@H]4C[C@@H]4c4ccccc4)C3)cc2)C[C@H]1C(=O)NCCCCCC` (single isomer, unassigned) [Compound 145], the EC50 was over 1 µM. `CCCCCCCCCCCCCNC(=O)N[C@H]1CN(c2nnc(-c3ccc(C(=O)N4C[C@@H](C(=O)N[C@H]5C[C@@H]5c5ccccc5)[C@H](C(=O)N[C@H]5C[C@@H]5c5ccccc5)C4)cc3)[nH]2)C[C@@H]1OC` [Compound 237, (3S,4S)-1-(4-(5-((3S,4S)-3-methoxy-4-(3-tridecylureido)pyrrolidin-1-yl)-4H-1,2,4-triazol-3-yl)benzoyl)-N3,N4-bis((1S,2R)-2-phenylcyclopropyl)pyrrolidine-3,4-dicarboxamide] gave an EC50 of over 1 µM. Compound `CCCCCCCO[C@H]1CN(C(=O)c2ccc(C(=O)N3C[C@@H](C(=O)N[C@H]4C[C@@H]4c4ccccc4)[C@H](C(=O)N[C@H]4C[C@@H]4c4ccccc4)C3)cc2)C[C@H]1C(=O)NCCCCCC` (single isomer, unassigned) [Compound 115, (3S,4S)-1-(4-((3R*,4R*)-3-(heptyloxy)-4-(hexylcarbamoyl)pyrrolidine-1-carbonyl)benzoyl)-N3,N4-bis((1S,2R)-2-phenylcyclopropyl)pyrrolidine-3,4-dicarboxamide] has an EC50 of over 1 µM. For `CCCCCCCCCCCCCCN1C(=O)CNC(=O)[C@@H]1CNC(=O)c1ccc(C(=O)N2C[C@@H](C(=O)N[C@H]3C[C@@H]3c3ccccc3)[C@H](C(=O)N[C@H]3C[C@@H]3c3ccccc3)C2)cc1` [Compound 147, (3S,4S)-1-(4-((((S)-3,6-dioxo-1-tetradecylpiperazin-2-yl)methyl)carbamoyl)benzoyl)-N3,N4-bis((1S,2R)-2-phenylcyclopropyl)pyrrolidine-3,4-dicarboxamide], the EC50 was over 1 µM. With `CCCCCCCCCCCCCCCN1C[C@@H](NC(=O)c2ccc(C(=O)N3C[C@@H](C(=O)N[C@H]4C[C@@H]4c4ccccc4)[C@H](C(=O)N[C@H]4C[C@@H]4c4ccccc4)C3)cc2)CCC1=O` [Compound 180, (3S,4S)-1-(4-(((S)-6-oxo-1-pentadecylpiperidin-3-yl)carbamoyl)benzoyl)-N3,N4-bis((1S,2R)-2-phenylcyclopropyl)pyrrolidine-3,4-dicarboxamide] the EC50 was over 1 µM. For `CCCCCCCCCCCCCCNC(=O)[C@@H]1CN(C(=O)c2ccc(C(=O)N3C[C@@H](C(=O)N[C@H]4C[C@@H]4c4ccccc4)[C@H](C(=O)N[C@H]4C[C@@H]4c4ccccc4)C3)cc2)C[C@H]1O` (single isomer, unassigned) [Compound 105, (3S,4S)-1-(4-((3R*,4S*)-3-hydroxy-4-(tetradecylcarbamoyl)pyrrolidine-1-carbonyl)benzoyl)-N3,N4-bis((1S,2R)-2-phenylcyclopropyl)pyrrolidine-3,4-dicarboxamide], the EC50 was 0.051 to 0.35 µM. For `CCCCCCCCCCCCCCNC(=O)[C@H]1CN(C(c2ccc(C(=O)N3C[C@@H](C(=O)N[C@H]4C[C@@H]4c4ccccc4)[C@H](C(=O)N[C@H]4C[C@@H]4c4ccccc4)C3)cc2)C(F)(F)F)CCN1C` (stereo partly drawn) [Compound 132, (3S,4S)—N3,N4-bis((1S,2R)-2-phenylcyclopropyl)-1-(4-(2,2,2-trifluoro-1-((R)-4-methyl-3-(tetradecylcarbamoyl)piperazin-1-yl)ethyl)benzoyl)pyrrolidine-3,4-dicarboxamide], the EC50 was 0.051 to 0.35 µM.
